# Experimental data taken from patent US20230357856A1, “METHODS AND COMPOSITIONS FOR PROGNOSING GLIOBLASTOMA OR BREAST CANCER” (The Johns Hopkins University, priority 2020, published 2023).
# “Also recorded” adds a separate entry of the source.
# System: metastatic MDA-MB-231 breast cancer cells
# Assay: Microfluidic Assay for Quantification of Cell Invasion (MAqCI), migration of breast cancer cells
# Format: cell-based
# Settings: 5 µM, 13 hours post administration, MDA-MB-231 cells, compared to vincristine (VC); FIG. 24
smiles,measurement,value
Fc1ccc([C@@H]2CCNC[C@H]2COc2ccc3c(c2)OCO3)cc1 [paroxetine],percentage of migratory cells in MAqCI,down to the levels of non-metastatic cells; also recorded: decreases the percent of migratory cells to the level of non-metastatic cells
